Measured values taken from ChEMBL document CHEMBL1125372, “Crystal-structure-based design and synthesis of benz[cd]indole-containing inhibitors of thymidylate synthase” (J Med Chem, 1992).
pIC50: −log10 of the molar value.

Assays:
CCRF-CEM = assay: Inhibition of cellular growth by the MTT colorimetric assay in CCRF-CEM, human lymphoblasticof T-cell origin
GC3/MTK- = assay: Inhibition of cellular growth by the MTT colorimetric assay in GC3/M TK-, a human thymidine kinase deficient adenocarcinoma line
L1210 = assay: Inhibition of cellular growth by the MTT colorimetric assay in L1210, murine leukemia cell line; details: Mus musculus
[1] = Compound was evaluated for thymidylate shift expressed as the ratio of the IC50 in the presence of […] uM thymidylate divided by the IC50 with no thymidylate added
[2] = target: Thymidylate synthase (Escherichia coli) (UniProt C3SWJ7)
Sequence of Thymidylate synthase (Escherichia coli) (C3SWJ7 1-264): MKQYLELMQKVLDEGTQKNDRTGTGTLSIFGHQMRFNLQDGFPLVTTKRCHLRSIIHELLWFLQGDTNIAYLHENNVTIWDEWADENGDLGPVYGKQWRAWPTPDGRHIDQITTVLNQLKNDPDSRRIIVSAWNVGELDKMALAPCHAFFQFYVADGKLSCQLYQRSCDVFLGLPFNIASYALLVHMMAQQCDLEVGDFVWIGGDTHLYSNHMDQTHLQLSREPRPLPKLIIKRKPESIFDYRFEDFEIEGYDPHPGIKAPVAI
Description: Inhibitory activity against thymidylate synthase from Escherichia coli

[3] = target: Thymidylate synthase (Escherichia coli) (UniProt C3SWJ7); remark: listed apart in the source
Description: Compound was evaluated for its inhibitory activity against thymidylate synthase from Escherichia coli

[4] = target: Thymidylate synthase (Homo sapiens) (UniProt P04818)
Sequence of Thymidylate synthase (Homo sapiens) (P04818 2-313 limits assumed): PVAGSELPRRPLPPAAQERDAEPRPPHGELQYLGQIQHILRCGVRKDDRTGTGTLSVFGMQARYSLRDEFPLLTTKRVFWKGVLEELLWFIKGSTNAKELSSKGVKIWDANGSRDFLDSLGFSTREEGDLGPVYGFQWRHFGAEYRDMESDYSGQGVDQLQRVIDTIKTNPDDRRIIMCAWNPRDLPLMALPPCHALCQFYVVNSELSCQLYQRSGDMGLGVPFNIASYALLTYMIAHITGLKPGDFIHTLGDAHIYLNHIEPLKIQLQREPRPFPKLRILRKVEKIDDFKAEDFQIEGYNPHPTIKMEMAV
Description: (§1) Inhibitory activity against thymidylate synthase from human

[5] = target: Thymidylate synthase (Homo sapiens) (UniProt P04818); remark: listed apart in the source
Description: as §1

| SMILES | pIC50 (CCRF-CEM) | pIC50 (GC3/MTK-) | pIC50 (L1210) | Thymidylate shift [1] | Kii [2] | Kis [3] | Kii [4] | Kis [5] |
| --- | --- | --- | --- | --- | --- | --- | --- | --- |
| O=C1Nc2ccc(NCc3ccc(S(=O)(=O)c4ccccc4)cc3)c3cccc1c23 | < 5.40 | < 5.40 | 5.64 |  |  |  |  |  |
| Cc1ccc2c3c(ccc(N(C)Cc4ccc(S(=O)(=O)c5ccc([N+](=O)[O-])cc5)cc4)c13)N=C2N | 6.16 | 6.04 | 6.24 |  |  |  |  |  |
| O=C1Nc2ccc(N(CCO)Cc3ccc(S(=O)(=O)N4CCNCC4)cc3)c3cccc1c23 | 4.51 | < 4.30 | 4.30 |  |  |  |  |  |
| COc1ccc(S(=O)(=O)c2ccc(CN(C)c3ccc4c5c(ccc(C)c35)C(NO)=N4)cc2)cc1 | 5.30 | < 5.00 | 5.39 |  |  |  |  |  |
| CSC1Nc2ccc(N(C)Cc3ccc(S(=O)(=O)c4ccc(O)cc4)cc3)c3cccc1c23 (stereo unspecified) | < 5.40 | < 5.40 | < 5.40 |  |  |  |  |  |
| Cc1ccc2c3c(ccc(N(C)Cc4ccc(S(=O)(=O)N5CCOCC5)cc4)c13)N=C2N | 6.66 | 6.36 | 6.66 |  |  |  |  |  |
| Cc1ccc2c3c(ccc(N(C)Cc4ccc(S(=O)(=O)c5ccccc5)cc4)c13)NC2=O | 5.32 | < 5.30 | 5.72 |  |  |  |  |  |
| Cc1ccc2c3c(ccc(N(C)Cc4ccc(S(=O)(=O)c5ccccc5)cc4)c13)N=C2N | 6.44 | 6.28 | 6.60 | 3.85 |  |  |  |  |
| CN(Cc1ccc(S(=O)(=O)c2ccccc2)cc1)c1ccc2c3c(cccc13)C(NO)=N2 | 5.70 | < 5.30 | 6.09 |  |  |  |  |  |
| CCN(Cc1ccc(S(=O)(=O)c2ccccc2)cc1)c1ccc2c3c(cccc13)C(N)=N2 | 5.90 | 5.52 | 6.15 |  |  |  |  |  |
| CCCN(Cc1ccc(S(=O)(=O)N2CCNCC2)cc1)c1ccc2c3c(cccc13)C(=O)N2 | 5.51 | 5.27 | 5.54 |  |  |  |  |  |
| COc1ccc(S(=O)(=O)c2ccc(CN(C)c3ccc4c5c(cccc35)C(N)=N4)cc2)cc1 | 5.68 | 5.68 | 5.92 |  |  |  |  |  |
| Cc1ccc2c3c(ccc(N(C)Cc4ccc(S(=O)(=O)c5ccc(N)cc5)cc4)c13)NC2=O | 5.30 | < 5.30 | 5.48 |  |  |  |  |  |
| CCN(Cc1ccc(S(=O)(=O)c2ccccc2)cc1)c1ccc2c3c(cccc13)C(=O)N2 | < 5.48 | 5.48 | 5.52 |  |  |  |  |  |
| CC(C)N(Cc1ccc(S(=O)(=O)N2CCNCC2)cc1)c1ccc2c3c(cccc13)C(=O)N2 | 5.17 | 5.23 | 5.41 |  |  |  |  |  |
| CSc1ccc2c3c(ccc(N(C)Cc4ccc(S(=O)(=O)N5CCOCC5)cc4)c13)N=C2N | 5.51 | 5.16 | 5.72 |  |  |  |  |  |
| O=C1Nc2ccc(N(CCCO)Cc3ccc(S(=O)(=O)N4CCNCC4)cc3)c3cccc1c23 | 4.82 | 4.52 | 4.67 |  |  |  |  |  |
| Cc1ccc2c3c(ccc(NCc4ccc(S(=O)(=O)c5ccccc5)cc4)c13)NC2=O | 5.60 | < 5.30 | 5.70 |  |  |  |  |  |
| CC(=O)c1cccc2c(N(C)Cc3ccc(S(=O)(=O)c4ccc(N)cc4)cc3)ccc(N)c12 | 5.23 | < 5.00 | 5.04 |  |  |  |  |  |

| SMILES | pIC50 (CCRF-CEM) | pIC50 (GC3/MTK-) | pIC50 (L1210) | Thymidylate shift [1] | Kii [2] | Kis [3] | Kii [4] | Kis [5] |
| --- | --- | --- | --- | --- | --- | --- | --- | --- |
| Cc1ccc2c3c(ccc(N(C)Cc4ccc(S(=O)(=O)N5CCOCC5)cc4)c13)NC2=O | 5.41 | < 5.30 | 5.59 |  |  |  |  |  |
| CNC1=Nc2ccc(N(C)Cc3ccc(S(=O)(=O)c4ccccc4)cc3)c3cccc1c23 | 5.48 | 5.47 | 5.80 |  |  |  |  |  |
| CN(Cc1ccc(S(=O)(=O)c2ccccc2)cc1)c1ccc2c3c(cccc13)C(NN)=N2 | 5.89 | < 5.00 | 5.62 |  |  |  |  |  |
| CN(Cc1ccc(S(=O)(=O)N2CCOCC2)cc1)c1ccc2c3c(ccc(Cl)c13)C(=O)N2 | < 5.30 | < 5.30 | < 5.30 |  |  |  |  |  |
| CN(Cc1ccc(S(=O)(=O)N2CCOCC2)cc1)c1ccc2c3c(ccc(Cl)c13)C(N)=N2 | 6.05 | 5.85 | 6.36 |  |  |  |  |  |
| CNC1=Nc2ccc(N(C)Cc3ccc(S(=O)(=O)c4ccc(OC)cc4)cc3)c3c(C)ccc1c23 | 6.05 | 5.82 | 6.14 |  |  |  |  |  |
| COc1ccc(S(=O)(=O)c2ccc(CN(C)c3ccc4c5c(cccc35)C(=O)N4)cc2)cc1 | 5.52 | 5.00 | 5.34 |  |  |  |  |  |
| CN(Cc1ccc(S(=O)(=O)c2ccc([N+](=O)[O-])cc2)cc1)c1ccc2c3c(cccc13)C(=O)N2 | 5.55 | < 5.30 | 5.70 |  |  |  |  |  |
| Cc1ccc2c3c(ccc(N(C)Cc4ccc(S(=O)(=O)c5ccc([N+](=O)[O-])cc5)cc4)c13)NC2=O | 5.62 | < 5.30 | 6.05 |  |  |  |  |  |
| CN(Cc1ccc(S(=O)(=O)N2CCOCC2)cc1)c1ccc2c3c(cccc13)C(=O)N2 | < 5.30 | < 5.30 | < 5.30 |  |  |  |  |  |
| Cc1ccc2c3c(ccc(N(C)Cc4ccc(S(=O)(=O)c5ccc(N)cc5)cc4)c13)N=C2N | 6.70 | 6.57 | 6.55 |  |  |  |  |  |
| CNC1=Nc2ccc(N(C)Cc3ccc(S(=O)(=O)N4CCOCC4)cc3)c3c(C)ccc1c23 | 6.21 | 6.68 | 6.74 |  | 0.088 µM | 0.055 µM |  |  |
| CN(Cc1ccc(S(=O)(=O)c2ccc(O)cc2)cc1)c1ccc2c3c(cccc13)C(N)=N2 | 5.57 | 5.39 | 5.68 |  |  |  |  |  |
| CN(Cc1ccc(S(=O)(=O)N2CCOCC2)cc1)c1ccc2c3c(cccc13)C(=N)N2 | 6.34 | 6.05 | 6.31 |  | 5.4 µM | 1.8 µM | 0.015 µM | 0.012 µM |
| COc1ccc(S(=O)(=O)c2ccc(CN(C)c3ccc4c5c(ccc(C)c35)C(=O)N4)cc2)cc1 | 5.40 | < 5.30 | 5.70 |  |  |  |  |  |
| COc1ccc(S(=O)(=O)c2ccc(CN(C)c3ccc4c5c(ccc(C)c35)C(N)=N4)cc2)cc1 | 6.40 | 6.01 | 6.51 |  |  |  |  |  |
| CN(Cc1ccc(S(=O)(=O)c2ccc(O)cc2)cc1)c1ccc2c3c(cccc13)C(=O)N2 | 5.02 | 5.02 | 5.00 |  |  |  |  |  |
| CNC1=Nc2ccc(N(C)Cc3ccc(S(=O)(=O)N4CCOCC4)cc3)c3cccc1c23 | < 5.30 | < 5.30 | 5.74 |  |  |  |  |  |
| CSCN(Cc1ccc(S(=O)(=O)c2ccccc2)cc1)c1ccc2c3c(cccc13)C(=O)N2 | 5.55 | < 5.00 | 5.68 |  |  |  |  |  |
